In ChEMBL document CHEMBL3507680, “University of Dundee, Gates Library screen for HepG2 cell viability”:

Assay: Human HepG2 cell viability assay in 384 well format
Assay type: toxicity, cell-based
Design: dose 125 nL, time 70.5 hour; cytotoxicity at 70.5 h: concentration not given beside the values
Conditions: HepG2 cells, read-out: Inhibition
CCN(Cc1ccoc1)C(C(N)=O)c1ccc(Br)cc1 (stereo unspecified) showed a cytotoxicity at 70.5 h of 16.2%.
O=S1(=O)NC(C2CCN(Cc3ccncc3)CC2)Nc2ccccc21 (stereo unspecified) showed a cytotoxicity at 70.5 h of 23.9%.
For Cc1cc(-c2cnn(CCNC(=O)C3CC3)c2C2CC2)on1, the cytotoxicity at 70.5 h was 27%.
CCc1c(C)sc2ncnc(N3CC[C@@H](N4CCC(O)CC4)[C@H](O)C3)c12 showed a cytotoxicity at 70.5 h of -10.6%.
In the case of COc1cccc(NC(=O)Nc2ccc3c(c2)CC(=O)N3)c1, the cytotoxicity at 70.5 h is reported as -16.9%.
In the case of COCc1cn(C2CCN(C(=O)Cc3ccsc3)CC2)nn1, the cytotoxicity at 70.5 h is reported as -9.06%.
With COc1cccc(COCC(=O)N2CCCC(n3ccnc3)C2)c1 (stereo unspecified) the cytotoxicity at 70.5 h was -11.9%.
Cc1noc(C)c1CNC(C(=O)N1CCOCC1)C(C)C (stereo unspecified) showed a cytotoxicity at 70.5 h of -7.07%.
CN(Cc1ccccc1F)C(C(N)=O)c1ccccc1 (stereo unspecified) gave a cytotoxicity at 70.5 h of 5.98%.
c1ccc(C2CN(c3ncnc4[nH]cnc34)CCO2)cc1 (stereo unspecified) gave a cytotoxicity at 70.5 h of -8.36%.
With CC1CN(C)c2ccccc2CN1C(=O)NCc1ccon1 (stereo unspecified) the cytotoxicity at 70.5 h was -0.0778%.
Work on Cc1cnccc1CCNC(=O)Nc1cnc(N(C)C)nc1 yielded a cytotoxicity at 70.5 h of 25.9%.
For COc1ccc(-c2cn3c(n2)CO[C@@H](CNCc2ccccn2)C3)cc1, the cytotoxicity at 70.5 h was -0.00582%.
In the case of Cc1nc[nH]c1C(=O)N1CCC2(CN(C)C(=O)O2)C1 (stereo unspecified), the cytotoxicity at 70.5 h is reported as -7.68%.
Work on Cn1nc(CN2CCCC2)c2c1CN(C(=O)c1cnccn1)CC2 yielded a cytotoxicity at 70.5 h of -1.41%.
COc1ccnc(N2C[C@@H]3CC[C@H](C2)N(CC2CC2)C3)n1 showed a cytotoxicity at 70.5 h of 4.47%.
For COc1ncccc1CNC(=O)Nc1cc(C)nn1C, the cytotoxicity at 70.5 h was -7.29%.
Work on O=C(c1cc[nH]n1)N1CCC(c2nccn2Cc2ccncc2)CC1 yielded a cytotoxicity at 70.5 h of 0.529%.
O=C1NCCCc2[nH]c(Cc3ccc(F)cc3)nc21 gave a cytotoxicity at 70.5 h of -6%.
With CC(C)Oc1ccc(C(=O)NCc2ccnc(N3CCCC3)c2)cn1 the cytotoxicity at 70.5 h was -10.1%.
With CCOCC1c2c(ncn2C)CCN1C(=O)c1cscn1 (stereo unspecified) the cytotoxicity at 70.5 h was 21.3%.
For O=C(C1CCCC1)N1CCOC(c2nc(-c3ncccn3)no2)C1 (stereo unspecified), the cytotoxicity at 70.5 h was -4.9%.
Work on CCn1nc2c(cc1=O)CN(CC(=O)Nc1nccs1)CC2 yielded a cytotoxicity at 70.5 h of -2.47%.
In the case of CCn1cnnc1CNC(=O)N1CCCN(C(C)=O)CC1, the cytotoxicity at 70.5 h is reported as -11.8%.
In the case of O[C@H]1CCCC[C@@H]1N1CCN(CCCc2ccc3c(c2)OCO3)CC1, the cytotoxicity at 70.5 h is reported as -6.44%.
Compound Cn1nc(CN2CCCCC(N)C2)c2c(Cl)cccc21 (stereo unspecified) has a cytotoxicity at 70.5 h of 36.9%.
In the case of CCN(CC(=O)N(C)C)C(=O)c1nc(C)n(-c2ccccc2Cl)n1, the cytotoxicity at 70.5 h is reported as -0.577%.
Compound CN(Cc1ccc(Cl)s1)C(=O)NCc1nnc2n1CCC2 has a cytotoxicity at 70.5 h of 2.59%.
Compound NC(=O)c1nnn(-c2ccc(Br)cc2)n1 has a cytotoxicity at 70.5 h of 33.2%.
Cn1ccc(C(=O)Nc2nnc(-c3ccccn3)[nH]2)cc1=O gave a cytotoxicity at 70.5 h of -22.2%.
For CCCn1cc(-c2cc(C(=O)N(C)C)c3ccc(C)cc3n2)cn1, the cytotoxicity at 70.5 h was -9.76%.
Cc1nnc(N2C[C@H](C(=O)NCC3CC3)[C@@H]3CCO[C@@H]3C2)s1 gave a cytotoxicity at 70.5 h of -4%.
Compound Cn1nc(CNC(=O)C2COc3ccccc3O2)cc1C1CC1 (stereo unspecified) has a cytotoxicity at 70.5 h of 6.17%.
CCCS(=O)(=O)N1CCC2(CCC(=O)N(Cc3ccccc3)C2)CC1 showed a cytotoxicity at 70.5 h of -4.86%.
CC1=Nc2c(c(O)nn2C2CCOCC2)C(c2cccnc2)S1 (stereo unspecified) gave a cytotoxicity at 70.5 h of -3.81%.
Compound CC(=O)N1CCCCC1c1cc(C(=O)N2CCOCC2)[nH]n1 (stereo unspecified) has a cytotoxicity at 70.5 h of -7.33%.
For CCCc1nnc2sc(-c3cc(C(C)C)n[nH]3)nn12, the cytotoxicity at 70.5 h was 15.4%.
In the case of N#Cc1ncn(CCC(=O)Nc2ccc(Cl)cc2F)n1, the cytotoxicity at 70.5 h is reported as -7.28%.
Cc1nc(C)n(CC2CCCN(Cc3ccc(F)cc3C#N)C2)n1 (stereo unspecified) gave a cytotoxicity at 70.5 h of -1.49%.
Compound CN(Cc1cnn(C)c1)C(=O)c1cc2ccccc2c(=O)[nH]1 has a cytotoxicity at 70.5 h of -9.32%.
Work on COc1ccc(CN(C)[C@@H]2CN(C(=O)c3ccccc3)C[C@H]2O)cc1 yielded a cytotoxicity at 70.5 h of -2.29%.
Compound Cn1cc([C@@H]2CN(S(=O)(=O)c3cccs3)C[C@H]2N)c2ccncc21 has a cytotoxicity at 70.5 h of 4.81%.
In the case of Fc1ccc(OCc2nnc([C@H]3CCN(Cc4ccccn4)C3)o2)cc1, the cytotoxicity at 70.5 h is reported as -7.48%.
Compound O=C([C@@H]1C[C@@H]2CCN(C3CCOCC3)C[C@@H]2O1)N1CCOCC1 has a cytotoxicity at 70.5 h of -7.48%.
CN1C(=O)c2cccc(NC(=O)c3ccc4c(c3)OCCO4)c2C1=O gave a cytotoxicity at 70.5 h of 21.1%.
For COc1cc(NC(=O)C2CC(=O)N(c3cccc(F)c3)C2)ncn1 (stereo unspecified), the cytotoxicity at 70.5 h was -3.43%.
For O=C1COC2(CCN(Cc3cccs3)CC2)CN1c1ccsc1, the cytotoxicity at 70.5 h was 1.63%.
In the case of CN(C)S(=O)(=O)N1CCOC(c2cccc(-c3cncnc3)n2)C1 (stereo unspecified), the cytotoxicity at 70.5 h is reported as -10.8%.
Cn1cc(NS(=O)(=O)c2ccc(OC(F)(F)F)cc2)ccc1=O showed a cytotoxicity at 70.5 h of 18%.
In the case of C[C@H](N)Cn1nc(-c2cccs2)oc1=O, the cytotoxicity at 70.5 h is reported as -1.53%.
With O=C(C1CCS(=O)(=O)C1)N1CCC(=Cc2cccc(F)c2)CC1 (stereo unspecified) the cytotoxicity at 70.5 h was -9.56%.
Work on CN1CCC(NC(=O)[C@H]2CC[C@@H]3[C@@H](CCN3c3ncccn3)O2)CC1 yielded a cytotoxicity at 70.5 h of -6.76%.
Cc1ncc2c(n1)CN(CC(=O)N1CCc3sccc3C1)CC2 gave a cytotoxicity at 70.5 h of -1.15%.
Compound Cn1cc(C(=O)N2CCN(Cc3cscn3)CC2)ccc1=O has a cytotoxicity at 70.5 h of 4.94%.
For Cn1cc(CN2C[C@H]3CCC[C@@H](CNc4ncccn4)[C@H]3C2)cn1, the cytotoxicity at 70.5 h was -3.23%.
Cc1cc(C(=O)NC2CCN(C(=O)Nc3cccnc3)CC2)c(C)o1 gave a cytotoxicity at 70.5 h of -9.09%.
CC(C)[C@@H]1CN(C(=O)c2ccsc2)C[C@H]1C(=O)O gave a cytotoxicity at 70.5 h of -6.74%.
In the case of O=C(C1SCCc2ccccc21)N1CCC(O)CC1 (stereo unspecified), the cytotoxicity at 70.5 h is reported as -7.52%.
Work on CSCCCN1CCn2nc(CNC(C)=O)cc2C1 yielded a cytotoxicity at 70.5 h of 14.2%.
For O=C(c1ccc(CN2CCCCC2)cc1)N1Cc2cnn(CCO)c2C1, the cytotoxicity at 70.5 h was 19.3%.
In the case of CCCOC1CCCN(c2ncnc3c2CCN(C(=O)C2CC2)C3)C1 (stereo unspecified), the cytotoxicity at 70.5 h is reported as -7.75%.
NC1CCc2c(ccc(=O)n2CC2CC2)C1 (stereo unspecified) showed a cytotoxicity at 70.5 h of 27.6%.
For Cc1nc[nH]c1CN1CCCC12CCN(c1ccccn1)CC2, the cytotoxicity at 70.5 h was -3.64%.
With CCN1CCOC(CNCc2c(Cl)nc3ccccn23)C1 (stereo unspecified) the cytotoxicity at 70.5 h was -21.6%.
Work on COc1ccc(-c2noc(CN3CC(n4cc(C)cn4)C3)n2)cc1 yielded a cytotoxicity at 70.5 h of -11.2%.
In the case of O=C(c1ccco1)N1CCO[C@@H]2CNC[C@@H]21, the cytotoxicity at 70.5 h is reported as -6.25%.
CC(C)CN1CCCn2nc(CNC(=O)CCN)cc2C1 gave a cytotoxicity at 70.5 h of -6.27%.
For CC[C@@]1(O)CCN(C(=O)CCc2cnn(C)c2)C[C@H]1O, the cytotoxicity at 70.5 h was -9.56%.
For COc1ccc(C(C)N2CCC(C(=O)NC3CC3)CC2)cc1Cl (stereo unspecified), the cytotoxicity at 70.5 h was -7.15%.
Compound CS(=O)(=O)CCN(CCCO)C1CCc2ccccc21 (stereo unspecified) has a cytotoxicity at 70.5 h of -98.4%.
N[C@@H]1CCCN(C(=O)Cc2c[nH]c3ccccc23)[C@H]1c1ccccc1F gave a cytotoxicity at 70.5 h of 23.2%.
With Cc1cc(Br)ccc1NCc1ccc(C(=O)N(C)C)[nH]1 the cytotoxicity at 70.5 h was 18.2%.
For COc1ccccc1OCC(=O)NCc1ncc(C)c(OC)c1C, the cytotoxicity at 70.5 h was 11.5%.
For COCCNC(=O)N1CCC(NC(C)C)CC1, the cytotoxicity at 70.5 h was 5.14%.
For c1cc(N2CCC3(COCc4cnc(NCC5CC5)nc43)C2)ncn1 (stereo unspecified), the cytotoxicity at 70.5 h was 32.2%.
With COc1c(CNC(c2cccc(F)c2)c2nccn2C)c(C)nn1C (stereo unspecified) the cytotoxicity at 70.5 h was 19%.
Compound CC(C)CN1CC(c2nc(CCc3ccccc3)n[nH]2)CC1=O (stereo unspecified) has a cytotoxicity at 70.5 h of -9.23%.
Compound Cc1c(C)n(Cc2ccccn2)c2nc3c(c(N)c12)CCCCC3 has a cytotoxicity at 70.5 h of 27.5%.
CS(=O)(=O)c1cncnc1C1CCCN(C(=O)Cc2ccccc2F)C1 (stereo unspecified) showed a cytotoxicity at 70.5 h of -7.69%.
With O=c1c(NCc2ccncc2)c(NCC(O)CN2CCOCC2)c1=O (stereo unspecified) the cytotoxicity at 70.5 h was -17.9%.
In the case of CCCN(CCO)C(=O)C1CCC(=O)N(CCc2ccc(Cl)cc2)C1 (stereo unspecified), the cytotoxicity at 70.5 h is reported as -4.6%.
